melting point [°C]	SMILES
251 to 253	Nc1cnc2c(NC(CO)CO)nc(SCc3cccc(F)c3F)nc2n1 [Example 2, 2-[[7-amino-2-[[(2,3-difluorophenyl)methyl]thio]-4-pteridinyl]amino]-1,3-propanediol]
185 to 189	CC[C@H](CO)Nc1nc(SCc2cccc(F)c2F)nc2nc(N)cnc12 [Example 4, (2R)-2-[[7-Amino-2-[[(2,3-difluorophenyl)methyl]thio]-4-pteridinyl]amino]-1-butanol]
220 to 227	CC(CO)(CO)Nc1nc(SCc2cccc(F)c2F)nc2nc(N)cnc12 [Example 5, 2-[[7-Amino-2-[[(2,3-difluorophenyl)methyl]thio]-4-pteridinyl]amino]-2-methyl-1,3-propanediol]
224 to 226	C[C@H](CO)Nc1nc(SCc2cccc(Cl)c2F)nc2nc(N)cnc12 [Example 13, (2R)-2-[[7-amino-2-[[(3-chloro-2-fluorophenyl)methyl]thio]-4-pteridinyl]amino]-1-propanol]
